The text below walks through data of patent US11780893B2, “Kv1.3 blockers” (Zealand Pharma A/S, priority 2019, dated 2023).

For test [1], the target named is T1, human Kv1.3 voltage-gated K+ channel (Homo sapiens, UniProt P22001).
T1 construct: host or cells: CHO-DUKX
Description: cell-based. The conditions noted are these: inhibition of thallium flux, CHO-DUKX cells with human Kv1.3; read-out: IC50.

The next test addresses T2, Kv1.6 (Homo sapiens, UniProt P17658).
T2 construct: expressed in transfected cells; host or cells: Chinese Hamster Ovary (CHO)
Nature of the test: cell-based. The conditions noted are these: for IC50: CHO cells, whole-cell patch clamp, read-out: Potency IC50 (nM) Kv1.6; for Selectivity Kv1.6/Kv1.3: ratio IC50[Kv1.6]/IC50[Kv1.3].

Another test has as its target T3, Kv1.3 (Homo sapiens, UniProt P22001).
T3 construct: expressed in transfected cells; host or cells: Chinese Hamster Ovary (CHO)
Description: cell-based. The conditions noted are these: CHO cells, whole-cell patch clamp; read-out: Potency IC50 (nM) Kv1.3.

Another test has as its target T4, Kv1.2 (Homo sapiens, UniProt P16389).
T4 construct: expressed in transfected cells; host or cells: Chinese Hamster Ovary (CHO)
Description: cell-based. The conditions noted are these: CHO cells, whole-cell patch clamp; read-out: Potency IC50 (nM) Kv1.2. On the technique in general: In patch-clamp work, channel activity is measured electrically.

In the next test the target is Rat whole blood (Rattus norvegicus, UniProt P15384).
In a further test the target is T5, Kv1.1 (Homo sapiens, UniProt Q09470).
T5 construct: expressed in transfected cells; host or cells: Chinese Hamster Ovary (CHO)
Nature of the test: cell-based. The conditions noted are these: for IC50: CHO cells, whole-cell patch clamp, read-out: Potency IC50 (nM) Kv1.1; for Selectivity Kv1.1/Kv1.3: ratio IC50[Kv1.1]/IC50[Kv1.3].

Bridge positions count the residues as written; N and C are the ends. Peptide text beside a SMILES is read from it. A value given as a limit tells only on which side of the number the result lay.

T4 sequence (P16389 whole entry): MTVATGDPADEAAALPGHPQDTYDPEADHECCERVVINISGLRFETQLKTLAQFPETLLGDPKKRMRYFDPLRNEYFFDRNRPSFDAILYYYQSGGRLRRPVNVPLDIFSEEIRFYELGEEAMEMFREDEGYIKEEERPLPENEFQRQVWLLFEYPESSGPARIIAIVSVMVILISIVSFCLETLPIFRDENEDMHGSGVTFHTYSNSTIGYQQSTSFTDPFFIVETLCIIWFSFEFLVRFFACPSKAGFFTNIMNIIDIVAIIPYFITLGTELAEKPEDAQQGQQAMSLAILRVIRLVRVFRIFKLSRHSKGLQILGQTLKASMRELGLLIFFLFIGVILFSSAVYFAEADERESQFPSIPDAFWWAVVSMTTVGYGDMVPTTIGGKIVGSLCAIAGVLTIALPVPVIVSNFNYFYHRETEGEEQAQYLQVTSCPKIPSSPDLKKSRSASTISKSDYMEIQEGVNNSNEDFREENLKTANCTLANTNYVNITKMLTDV
T2 sequence (P17658 whole entry): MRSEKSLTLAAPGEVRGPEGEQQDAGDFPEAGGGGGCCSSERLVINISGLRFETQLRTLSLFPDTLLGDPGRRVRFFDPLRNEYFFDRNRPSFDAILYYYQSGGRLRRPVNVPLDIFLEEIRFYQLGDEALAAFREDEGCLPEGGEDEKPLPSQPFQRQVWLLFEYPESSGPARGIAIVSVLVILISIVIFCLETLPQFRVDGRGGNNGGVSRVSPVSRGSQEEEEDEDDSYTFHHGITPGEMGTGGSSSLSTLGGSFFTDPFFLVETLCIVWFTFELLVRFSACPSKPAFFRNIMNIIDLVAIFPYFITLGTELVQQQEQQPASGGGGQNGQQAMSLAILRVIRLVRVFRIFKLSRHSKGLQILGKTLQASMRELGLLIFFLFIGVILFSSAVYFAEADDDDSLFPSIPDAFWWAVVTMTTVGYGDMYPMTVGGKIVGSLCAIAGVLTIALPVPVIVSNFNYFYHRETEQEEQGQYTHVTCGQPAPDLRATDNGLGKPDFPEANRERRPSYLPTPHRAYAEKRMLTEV
Rat whole blood, sequence (P15384 whole entry): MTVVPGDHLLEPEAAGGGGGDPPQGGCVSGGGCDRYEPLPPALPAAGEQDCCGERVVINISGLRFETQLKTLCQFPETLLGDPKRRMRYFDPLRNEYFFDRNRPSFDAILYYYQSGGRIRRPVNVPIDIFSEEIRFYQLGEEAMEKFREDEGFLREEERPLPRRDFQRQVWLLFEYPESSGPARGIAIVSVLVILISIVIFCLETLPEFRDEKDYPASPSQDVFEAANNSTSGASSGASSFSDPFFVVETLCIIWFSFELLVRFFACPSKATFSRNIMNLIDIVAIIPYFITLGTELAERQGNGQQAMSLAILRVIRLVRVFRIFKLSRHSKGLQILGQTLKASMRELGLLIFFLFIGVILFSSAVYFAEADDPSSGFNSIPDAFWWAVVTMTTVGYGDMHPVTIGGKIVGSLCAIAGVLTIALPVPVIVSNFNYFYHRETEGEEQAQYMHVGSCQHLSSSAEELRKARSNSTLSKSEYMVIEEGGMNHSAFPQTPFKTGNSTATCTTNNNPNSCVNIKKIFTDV
T5 sequence (Q09470 whole entry): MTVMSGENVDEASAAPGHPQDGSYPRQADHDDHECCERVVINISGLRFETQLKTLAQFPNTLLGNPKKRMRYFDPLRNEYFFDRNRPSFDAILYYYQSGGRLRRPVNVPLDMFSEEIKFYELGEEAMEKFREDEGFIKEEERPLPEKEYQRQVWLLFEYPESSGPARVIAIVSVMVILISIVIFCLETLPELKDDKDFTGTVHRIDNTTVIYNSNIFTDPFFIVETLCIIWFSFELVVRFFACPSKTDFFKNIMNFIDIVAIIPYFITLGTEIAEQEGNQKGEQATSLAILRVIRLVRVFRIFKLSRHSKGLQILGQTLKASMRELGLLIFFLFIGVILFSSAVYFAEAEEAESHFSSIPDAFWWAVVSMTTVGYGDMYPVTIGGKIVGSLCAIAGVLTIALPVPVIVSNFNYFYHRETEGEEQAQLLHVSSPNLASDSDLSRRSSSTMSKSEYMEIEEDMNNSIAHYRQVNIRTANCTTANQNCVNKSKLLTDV
T3 sequence (P22001 whole entry): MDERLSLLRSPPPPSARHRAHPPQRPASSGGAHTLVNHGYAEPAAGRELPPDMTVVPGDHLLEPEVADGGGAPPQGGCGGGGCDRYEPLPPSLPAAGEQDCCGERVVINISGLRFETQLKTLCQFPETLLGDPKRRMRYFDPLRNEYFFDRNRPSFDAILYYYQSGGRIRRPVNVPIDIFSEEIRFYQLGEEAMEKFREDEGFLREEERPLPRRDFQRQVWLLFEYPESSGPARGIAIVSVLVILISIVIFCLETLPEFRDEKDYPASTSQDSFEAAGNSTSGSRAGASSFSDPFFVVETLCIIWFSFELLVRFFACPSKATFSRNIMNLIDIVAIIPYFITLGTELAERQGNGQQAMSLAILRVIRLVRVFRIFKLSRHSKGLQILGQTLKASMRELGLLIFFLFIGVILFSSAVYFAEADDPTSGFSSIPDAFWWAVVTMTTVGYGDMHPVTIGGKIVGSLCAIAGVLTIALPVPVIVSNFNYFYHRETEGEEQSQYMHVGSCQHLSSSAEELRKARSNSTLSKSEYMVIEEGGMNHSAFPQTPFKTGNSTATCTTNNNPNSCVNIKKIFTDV
T1 sequence (P22001 whole entry): as above

As a reminder, the IC50 is the concentration that inhibits the measured activity by half. Consider `CC[C@H](C)[C@@H]1NC(=O)[C@H](C)NC(=O)[C@H](CCCCN)NC(=O)[C@H](CC(C)C)NC(=O)[C@@H]2CSSC[C@@H](C(=O)N[C@@H](Cc3ccc(O)cc3)C(=O)N3CCC[C@H]3C(=O)N[C@@H](CCCNC(=N)N)C(N)=O)NC(=O)[C@H](CCCCN)NC(=O)[C@@H]3CSSC[C@H](NC(=O)[C@H](CCC(=O)O)NC(=O)[C@H](C(C)C)NC(=O)[C@H](CO)NC(=O)[C@H]([C@@H](C)CC)NC(=O)[C@H](CO)NC(=O)[C@@H](NC(=O)[C@H](CCCNC(=N)N)NC(=O)[C@H](CCSC)NC(=O)[C@H](CC(=O)O)NC(=O)[C@H](CCSC)NC(=O)[C@@H](N)CC(N)=O)CSSC[C@H](NC(=O)[C@H](CCCCN)NC(=O)CNC(=O)[C@H](Cc4ccccc4)NC(=O)[C@H]([C@@H](C)CC)NC(=O)[C@H](CO)NC(=O)CNC1=O)C(=O)N[C@@H](CCSC)C(=O)N[C@@H](CC(N)=O)C(=O)N[C@@H](CCCCN)C(=O)N[C@@H](CCCCN)C(=O)N3)C(=O)N[C@@H](CCCCN)C(=O)N[C@@H](CCC(N)=O)C(=O)N[C@@H](CCCCN)C(=O)N2` [Compound 26] (H-NMDMRCSISVECKQKCLKAIGSIFGKCMNKKCKCYPR-NH2; disulfide 6-27, 12-32, 16-34), for which the IC50 in test [1] was 0.092 nM; at Kv1.6, above 3000 nM; at Kv1.3, 0.26 nM; at Kv1.2, 43 nM; against Rat whole blood, at most 1 nM; at Kv1.1, above 3000 nM. In addition, the “Selectivity Kv1.6/Kv1.3” value on Kv1.6 is listed as above 11800. The “Selectivity Kv1.1/Kv1.3” value at Kv1.1 was above 11800.
Regarding `CC[C@H](C)[C@@H]1NC(=O)[C@H](C)NC(=O)[C@H](CCCCN)NC(=O)[C@H](CC(C)C)NC(=O)[C@@H]2CSSC[C@@H](C(=O)N[C@@H](Cc3ccc(O)cc3)C(=O)N3CCC[C@H]3C(=O)N[C@@H](CCCNC(=N)N)C(N)=O)NC(=O)[C@H](CCCCN)NC(=O)[C@@H]3CSSC[C@H](NC(=O)[C@H](CCC(=O)O)NC(=O)[C@H](CCCNC(=N)N)NC(=O)[C@H](CO)NC(=O)[C@H](C)NC(=O)[C@H](CO)NC(=O)[C@@H](NC(=O)[C@H](CCCNC(=N)N)NC(=O)[C@H](CCSC)NC(=O)[C@H](CC(=O)O)NC(=O)[C@H](CCSC)NC(=O)[C@@H](N)CC(N)=O)CSSC[C@H](NC(=O)[C@H](CCCCN)NC(=O)CNC(=O)[C@H](Cc4ccccc4)NC(=O)[C@H]([C@@H](C)CC)NC(=O)[C@H](CO)NC(=O)CNC1=O)C(=O)N[C@@H](CCSC)C(=O)N[C@@H](CC(N)=O)C(=O)N[C@@H](CCCCN)C(=O)N[C@@H](CCCCN)C(=O)N3)C(=O)N[C@@H](CCCCN)C(=O)N[C@@H](CCC(N)=O)C(=O)N[C@@H](CCCCN)C(=O)N2` [Compound 27] (H-NMDMRCSASRECKQKCLKAIGSIFGKCMNKKCKCYPR-NH2; disulfide 6-27, 12-32, 16-34), the IC50 is 0.065 nM in test [1]; 206 nM at Kv1.6; 0.12 nM on Kv1.3; 11 nM on Kv1.2; at most 1 nM at Rat whole blood; above 3000 nM on Kv1.1. The “Selectivity Kv1.1/Kv1.3” value on Kv1.1 was above 25900.
Take `CC[C@H](C)[C@@H]1NC(=O)[C@H](C)NC(=O)[C@H](CCCCN)NC(=O)[C@H](CC(C)C)NC(=O)[C@@H]2CSSC[C@@H](C(=O)N[C@@H](Cc3ccc(O)cc3)C(=O)N3CCC[C@H]3C(=O)N[C@@H](CCCNC(=N)N)C(N)=O)NC(=O)[C@H](CCCCN)NC(=O)[C@@H]3CSSC[C@H](NC(=O)[C@H](CCC(N)=O)NC(=O)[C@H](C(C)C)NC(=O)[C@H](CO)NC(=O)[C@H](C)NC(=O)[C@H](CO)NC(=O)[C@@H](NC(=O)[C@H](CCCNC(=N)N)NC(=O)[C@H](CCSC)NC(=O)[C@H](CC(=O)O)NC(=O)[C@H](CCSC)NC(=O)[C@@H](N)CC(N)=O)CSSC[C@H](NC(=O)[C@H](CCCCN)NC(=O)CNC(=O)[C@H](Cc4ccccc4)NC(=O)[C@H]([C@@H](C)CC)NC(=O)[C@H](CO)NC(=O)CNC1=O)C(=O)N[C@@H](CCSC)C(=O)N[C@@H](CC(N)=O)C(=O)N[C@@H](CCCCN)C(=O)N[C@@H](CCCCN)C(=O)N3)C(=O)N[C@@H](CCCCN)C(=O)N[C@@H](CCC(N)=O)C(=O)N[C@@H](CCCCN)C(=O)N2` [Compound 28] (H-NMDMRCSASVQCKQKCLKAIGSIFGKCMNKKCKCYPR-NH2; disulfide 6-27, 12-32, 16-34): the IC50 in test [1] is 0.064 nM; on Kv1.6 it was 252 nM; on Kv1.3, 0.2 nM; on Kv1.2, 16 nM; against Rat whole blood, at most 1 nM; on Kv1.1, above 3000 nM. For the same compound, the “Selectivity Kv1.1/Kv1.3” value at Kv1.1 is reported as above 15200.
For the compound `CC[C@H](C)[C@@H]1NC(=O)[C@H](C)NC(=O)[C@H](CCCCN)NC(=O)[C@H](CC(C)C)NC(=O)[C@@H]2CSSC[C@@H](C(=O)N[C@@H](Cc3ccc(O)cc3)C(=O)N3CCC[C@H]3C(=O)N[C@@H](CCCNC(=N)N)C(N)=O)NC(=O)[C@H](CCCCN)NC(=O)[C@@H]3CSSC[C@H](NC(=O)[C@H](CCC(=O)O)NC(=O)[C@H](C(C)C)NC(=O)[C@H](CO)NC(=O)[C@H](C)NC(=O)[C@H](CO)NC(=O)[C@@H](NC(=O)[C@H](CCCNC(=N)N)NC(=O)[C@H](CCSC)NC(=O)[C@H](CC(=O)O)NC(=O)[C@H](CCSC)NC(=O)[C@@H](N)CC(N)=O)CSSC[C@H](NC(=O)[C@H](CCCCN)NC(=O)CNC(=O)[C@H](Cc4ccccc4)NC(=O)[C@H]([C@@H](C)CC)NC(=O)[C@H](CO)NC(=O)CNC1=O)C(=O)N[C@@H](CCSC)C(=O)N[C@@H](CC(N)=O)C(=O)N[C@@H](CCCCN)C(=O)N[C@@H](CCCCN)C(=O)N3)C(=O)N[C@@H](CC(C)C)C(=O)N[C@@H](CCC(N)=O)C(=O)N[C@@H](CCCCN)C(=O)N2` [Compound 29] (H-NMDMRCSASVECLQKCLKAIGSIFGKCMNKKCKCYPR-NH2; disulfide 6-27, 12-32, 16-34), the IC50 in test [1] was 0.18 nM; at Kv1.6, above 3000 nM; at Kv1.3 it was 0.4 nM; on Kv1.2 it was 874 nM; against Rat whole blood, at most 1 nM; at Kv1.1, above 3000 nM. Besides, at Kv1.6, the “Selectivity Kv1.6/Kv1.3” value is listed as above 7400. The “Selectivity Kv1.1/Kv1.3” value on Kv1.1 is above 7400.
Turning to `CC[C@H](C)[C@@H]1NC(=O)[C@H](C)NC(=O)[C@H](CCCCN)NC(=O)[C@H](CC(C)C)NC(=O)[C@@H]2CSSC[C@@H](C(=O)N[C@@H](Cc3ccc(O)cc3)C(=O)N3CCC[C@H]3C(=O)N[C@@H](CCCNC(=N)N)C(N)=O)NC(=O)[C@H](CCCCN)NC(=O)[C@@H]3CSSC[C@H](NC(=O)[C@H](CCC(=O)O)NC(=O)[C@H](C(C)C)NC(=O)[C@H](CO)NC(=O)[C@H](C)NC(=O)[C@H](CO)NC(=O)[C@@H](NC(=O)[C@H](CCCNC(=N)N)NC(=O)[C@H](CCSC)NC(=O)[C@H](CC(=O)O)NC(=O)[C@H](CCSC)NC(=O)[C@@H](N)CC(N)=O)CSSC[C@H](NC(=O)[C@H](CCCCN)NC(=O)CNC(=O)[C@H](Cc4ccccc4)NC(=O)[C@H]([C@@H](C)CC)NC(=O)[C@H](CO)NC(=O)CNC1=O)C(=O)N[C@@H](CCSC)C(=O)N[C@@H](CC(N)=O)C(=O)N[C@@H](CCCCN)C(=O)N[C@@H](CCCCN)C(=O)N3)C(=O)N[C@@H](CCCCN)C(=O)N[C@@H](CCC(=O)O)C(=O)N[C@@H](CCCCN)C(=O)N2` [Compound 31] (H-NMDMRCSASVECKEKCLKAIGSIFGKCMNKKCKCYPR-NH2; disulfide 6-27, 12-32, 16-34), the IC50 is 0.075 nM in test [1]; above 3000 nM at Kv1.6; 0.28 nM at Kv1.3; 179 nM on Kv1.2; at most 1 nM against Rat whole blood; above 3000 nM on Kv1.1. The “Selectivity Kv1.6/Kv1.3” value at Kv1.6 was above 10800. At Kv1.1, the “Selectivity Kv1.1/Kv1.3” value is on record as above 10800.
With `CC[C@H](C)[C@@H]1NC(=O)[C@H](C)NC(=O)[C@H](CCCCN)NC(=O)[C@H](CC(C)C)NC(=O)[C@@H]2CSSC[C@@H](C(=O)N[C@@H](Cc3ccc(O)cc3)C(=O)N3CCC[C@H]3C(=O)N[C@@H](CCCNC(=N)N)C(N)=O)NC(=O)[C@H](Cc3c[nH]cn3)NC(=O)[C@@H]3CSSC[C@H](NC(=O)[C@H](CCC(=O)O)NC(=O)[C@H](C(C)C)NC(=O)[C@H](CO)NC(=O)[C@H](C)NC(=O)[C@H](CO)NC(=O)[C@@H](NC(=O)[C@H](CCCNC(=N)N)NC(=O)[C@H](CCSC)NC(=O)[C@H](CC(=O)O)NC(=O)[C@H](CCSC)NC(=O)[C@@H](N)CC(N)=O)CSSC[C@H](NC(=O)[C@H](CCCCN)NC(=O)CNC(=O)[C@H](Cc4ccccc4)NC(=O)[C@H]([C@@H](C)CC)NC(=O)[C@H](CO)NC(=O)CNC1=O)C(=O)N[C@@H](CCSC)C(=O)N[C@@H](CC(N)=O)C(=O)N[C@@H](CCCCN)C(=O)N[C@@H](CCCCN)C(=O)N3)C(=O)N[C@@H](CCCCN)C(=O)N[C@@H](CCC(N)=O)C(=O)N[C@@H](CCCCN)C(=O)N2` [Compound 37] (H-NMDMRCSASVECKQKCLKAIGSIFGKCMNKKCHCYPR-NH2; disulfide 6-27, 12-32, 16-34), the IC50 is 0.14 nM in test [1]; above 3000 nM at Kv1.6; 0.19 nM on Kv1.3; 338 nM on Kv1.2; at most 1 nM on Rat whole blood; above 3000 nM on Kv1.1. Also, the “Selectivity Kv1.6/Kv1.3” value on Kv1.6 is reported as above 16100. Besides, the “Selectivity Kv1.1/Kv1.3” value at Kv1.1 is given as above 16100.
